# How the values were obtained:
# recombinant human MER = target: T1, recombinant human MER (Homo sapiens, UniProt Q12866); test: HTRF KinEASE-TK biochemical potency, MER; conditions: 1 nM MER, 700 μM ATP
# T1 construct: purchased Invitrogen
# T1 sequence (Q12866 21-999): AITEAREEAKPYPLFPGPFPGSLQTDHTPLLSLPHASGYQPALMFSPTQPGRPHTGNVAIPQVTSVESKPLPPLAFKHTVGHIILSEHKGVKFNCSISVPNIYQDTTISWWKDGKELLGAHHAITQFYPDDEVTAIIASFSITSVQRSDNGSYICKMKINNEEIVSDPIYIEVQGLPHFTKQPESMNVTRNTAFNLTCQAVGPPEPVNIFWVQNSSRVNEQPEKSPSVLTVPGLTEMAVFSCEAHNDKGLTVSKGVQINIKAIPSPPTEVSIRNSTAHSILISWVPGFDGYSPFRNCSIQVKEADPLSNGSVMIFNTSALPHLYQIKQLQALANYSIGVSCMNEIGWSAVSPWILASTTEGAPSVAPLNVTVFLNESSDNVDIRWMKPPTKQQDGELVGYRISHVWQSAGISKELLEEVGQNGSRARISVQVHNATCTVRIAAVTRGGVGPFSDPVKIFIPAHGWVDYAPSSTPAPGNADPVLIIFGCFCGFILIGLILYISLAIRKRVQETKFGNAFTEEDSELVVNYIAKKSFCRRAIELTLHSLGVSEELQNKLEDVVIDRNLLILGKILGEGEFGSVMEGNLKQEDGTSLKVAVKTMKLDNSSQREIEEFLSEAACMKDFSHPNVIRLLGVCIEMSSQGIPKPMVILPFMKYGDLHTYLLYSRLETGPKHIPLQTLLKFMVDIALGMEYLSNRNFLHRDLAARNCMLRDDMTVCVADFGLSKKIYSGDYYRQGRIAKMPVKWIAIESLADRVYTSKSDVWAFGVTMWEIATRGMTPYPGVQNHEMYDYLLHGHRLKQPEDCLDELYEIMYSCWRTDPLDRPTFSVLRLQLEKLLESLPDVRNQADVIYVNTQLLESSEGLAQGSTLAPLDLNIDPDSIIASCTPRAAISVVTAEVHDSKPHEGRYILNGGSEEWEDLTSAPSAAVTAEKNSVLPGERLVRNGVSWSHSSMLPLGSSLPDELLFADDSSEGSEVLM
# Protocol: (§1) Purified recombinant human AXL, TYRO3 and MER proteins were purchased from Invitrogen™. 10 nM AXL, 2 nM TYRO3 or MER were incubated with varying concentrations of compounds in 50 mM HEPES, pH 7.4, 10 mM MgCl2, 0.01% BSA, 1 mM DTT and 2% DMSO in a total volume of 20 μl in a 384-well microplate (Corning™ #3640) at RT for 1 h. The AXL, TYRO3 and MER enzymatic reaction was initiated by transferring 10 μl of enzyme and compound mixture into 10 μl of 1.6 μM TK Substrate-biotin (HTRF® KinEASE-TK kit, Cisbio) and 1400 μM ATP pre-incubated in 50 mM HEPES, pH 7.4, 10 mM MgCl2, 0.01% BSA, 1 mM DTT in a 384-well microplate (Corning™ #3640) at RT, giving the final reaction conditions: 5 nM AXL, 1 nM TYRO3 or MER, 800 nM TK Substrate-biotin and 700 μM ATP in 50 mM HEPES, pH 7.4, 10 mM MgCl2, 0.01% BSA, 1 mM DTT and 1% DMSO with varying concentrations of compounds. Following 2 h incubation at RT, the AXL, TYRO3 and MER enzymatic reaction was stopped by transfer of 10 μl of reaction into 10 μl of detection mix (400 nM Streptavidin-XL665, 200-fold dilution TK Antibody-Cryptate and detection buffer, HTRF® KinEASE-TK kit, Cisbio) in a white 384-well microplate (Perkin Elmer, OptiPlate 384). After 1 h incubation at RT, the plate was put into a plate reader (Evision) to read at 665/620 nm (acceptor/donor) for HTRF. The value of the DMSO blank (MIN inhibition=100% activity) was used as a negative control. The positive control was established by adding 5 μl of enzyme and DMSO mixture into 10 μl of detection mix followed by addition of 5 μl of TK Substrate-biotin and ATP mixture (MAX inhibition=0% activity). To calculate the percent activity, Equation 1 was used. Ratio665/620 is the value at a given compound concentration: […]
# Axl = target: T2, Axl (Homo sapiens, UniProt P30530); test: HTRF KinEASE-TK biochemical potency, AXL; parameters: purchased Invitrogen; conditions: 5 nM AXL, 700 μM ATP
# T2 sequence (P30530 26-894): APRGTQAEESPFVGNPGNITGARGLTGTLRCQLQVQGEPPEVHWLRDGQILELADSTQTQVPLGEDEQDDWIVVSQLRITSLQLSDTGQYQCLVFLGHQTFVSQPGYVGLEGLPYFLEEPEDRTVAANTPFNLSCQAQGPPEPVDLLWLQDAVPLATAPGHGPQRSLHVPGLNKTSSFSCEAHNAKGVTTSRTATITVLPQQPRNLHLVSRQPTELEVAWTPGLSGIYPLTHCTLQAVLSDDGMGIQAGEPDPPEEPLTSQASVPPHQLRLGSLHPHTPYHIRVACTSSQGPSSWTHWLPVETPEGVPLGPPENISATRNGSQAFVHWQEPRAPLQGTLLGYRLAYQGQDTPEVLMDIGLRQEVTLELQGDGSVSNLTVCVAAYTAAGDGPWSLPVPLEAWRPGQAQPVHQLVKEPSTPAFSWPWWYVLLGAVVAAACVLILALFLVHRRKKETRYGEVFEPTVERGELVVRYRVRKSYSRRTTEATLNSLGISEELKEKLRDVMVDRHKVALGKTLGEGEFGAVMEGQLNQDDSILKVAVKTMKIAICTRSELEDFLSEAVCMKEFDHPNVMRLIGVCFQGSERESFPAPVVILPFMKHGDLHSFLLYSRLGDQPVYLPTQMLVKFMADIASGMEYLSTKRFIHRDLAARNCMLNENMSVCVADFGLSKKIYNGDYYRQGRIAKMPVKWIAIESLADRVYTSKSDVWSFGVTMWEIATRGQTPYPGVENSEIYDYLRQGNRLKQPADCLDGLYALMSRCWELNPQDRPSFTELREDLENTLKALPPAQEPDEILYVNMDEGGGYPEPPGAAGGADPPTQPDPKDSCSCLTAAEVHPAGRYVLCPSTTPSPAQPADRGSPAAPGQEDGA
# Protocol: as §1
Compound,IC50 (recombinant human MER) [nM],IC50 (Axl) [nM]
"CC1(O)CCOc2cc(-c3n[nH]c4ncc(-c5ccc6c(c5)CCN(C5CCCC5)CC6)cc34)ccc21 (stereo not shown) [Example 26, 7-[5-(3-Cyclopentyl-2,3,4,5-tetrahydro-1H-3-benzazepin-7-yl)-1H-pyrazolo[3,4-b]pyridin-3-yl]-4-methyl-3,4-dihydro-2H-1-benzopyran-4-ol]",100 to 1000,< 100
"C[C@@H]1CCCN1C1CCc2ccc(-c3cnc4[nH]nc(-c5ccc6c(c5)C(=O)NC6(C)C)c4c3)cc2CC1 (stereo partly drawn) [Example 38, 3,3-Dimethyl-6-(5-{7-[(2R)-2-methylpyrrolidin-1-yl]-6,7,8,9-tetrahydro-5H-benzo[7]annulen-2-yl}-1H-pyrazolo[3,4-b]pyridin-3-yl)-2,3-dihydro-1H-isoindol-1-one]",100 to 1000,< 100
"C[C@@H]1CCCN1C1CCc2ccc(-c3cnc4[nH]nc(-c5ccc6c(c5)OCCNS6(=O)=O)c4c3)cc2CC1 (stereo partly drawn) [Example 66, 7-(5-{7-[(2R)-2-Methylpyrrolidin-1-yl]-6,7,8,9-tetrahydro-5H-benzo[7]annulen-2-yl}-1H-pyrazolo[3,4-b]pyridin-3-yl)-3,4-dihydro-2H-5,12,2-benzoxathiazepine-1,1-dione]",100 to 1000,< 100
"CC1(O)CCOc2cc(-c3n[nH]c4ncc(-c5ccc6c(c5)CC[C@@H](N5CCCC5)CC6)cc34)ccc21 (stereo partly drawn) [Example 31, 4-Methyl-7-{5-[(7S)-7-(pyrrolidin-1-yl)-6,7,8,9-tetrahydro-5H-benzo[7]annulen-2-yl]-1H-pyrazolo[3,4-b]pyridin-3-yl}-3,4-dihydro-2H-1-benzopyran-4-ol]",100 to 1000,< 100
"O=C1NCCOc2cc(-c3n[nH]c4ncc(-c5ccc6c(c5)CCC(N5CC[C@@H](O)C5)CC6)cc34)ccc21 (stereo partly drawn) [Example 51, 8-(5-(7-((R)-3-Hydroxypyrrolidin-1-yl)-6,7,8,9-tetrahydro-5H-benzo[7]annulen-2-yl)-1H-pyrazolo[3,4-b]pyridin-3-yl)-3,4-dihydrobenzo[f][1,4]oxazepin-5(2H)-one]",100 to 1000,< 100
"CC1(O)CCCCc2cc(-c3n[nH]c4ncc(-c5ccc6c(c5)CCN(C5CCCC5)CC6)cc34)ccc21 (stereo not shown) [Example 27, 2-[5-(3-Cyclopentyl-2,3,4,5-tetrahydro-1H-3-benzazepin-7-yl)-1H-pyrazolo[3,4-b]pyridin-3-yl]-5-methyl-6,7,8,9-tetrahydro-5H-benzo[7]annulen-5-ol]",> 1000,< 100
"O=C1NCCOc2cc(-c3n[nH]c4ncc(-c5ccc6c(c5)CCC(N[C@@H]5CCOC5)CC6)cc34)ccc21 (stereo partly drawn) [Example 46, 8-[5-(7-{[(3R)—Oxolan-3-yl]amino}-6,7,8,9-tetrahydro-5H-benzo[7]annulen-2-yl)-1H-pyrazolo[3,4-b]pyridin-3-yl]-2,3,4,5-tetrahydro-1,4-benzoxazepin-5-one]",< 100,< 100

# The remaining lines, values ahead:
IC50 (recombinant human MER) [nM],IC50 (Axl) [nM],Compound
< 100,< 100,"O=C1NCCOc2cc(-c3n[nH]c4ncc(-c5ccc6c(c5)CCC(N5CCC5)CC6)cc34)ccc21 (stereo not shown) [Example 52, 8-(5-(7-(Azetidin-1-yl)-6,7,8,9-tetrahydro-5H-benzo[7]annulen-2-yl)-1H-pyrazolo[3,4-b]pyridin-3-yl)-3,4-dihydrobenzo[f][1,4]oxazepin-5(2H)-one]"
< 100,< 100,"C[C@@H]1CCCN1C1CCc2ccc(-c3cnc4[nH]nc(-c5ccc6c(c5F)OCCNC6=O)c4c3)cc2CC1 (stereo partly drawn) [Example 60, 9-Fluoro-8-(5-{7-[(2R)-2-methylpyrrolidin-1-yl]-6,7,8,9-tetrahydro-5H-benzo[7]annulen-2-yl}-1H-pyrazolo[3,4-b]pyridin-3-yl)-2,3,4,5-tetrahydro-1,4-benzoxazepin-5-one]"
< 100,< 100,"C[C@@H]1CCCN1C1CCc2ccc(-c3cnc4[nH]nc(-c5ccc6c(c5)OCC5(CC5)NC6=O)c4c3)cc2CC1 (stereo partly drawn) [Example 36, 8-(5-{7-[(2R)-2-Methylpyrrolidin-1-yl]-6,7,8,9-tetrahydro-5H-benzo[7]annulen-2-yl}-1H-pyrazolo[3,4-b]pyridin-3-yl)-4,5-dihydro-2H-spiro[1,4-benzoxazepine-3,1′-cyclopropan]-5-one]"
< 100,< 100,"CC1(N2CCCC2)CCc2ccc(-c3cnc4[nH]nc(-c5ccc6c(c5)OCCNC6=O)c4c3)cc2CC1 (stereo not shown) [Example 22, 8-{5-[7-Methyl-7-(pyrrolidin-1-yl)-6,7,8,9-tetrahydro-5H-benzo[7]annulen-2-yl]-1H-pyrazolo[3,4-b]pyridin-3-yl}-2,3,4,5-tetrahydro-1,4-benzoxazepin-5-one]"
< 100,< 100,"C[C@@H]1CCCN1C1CCc2cc(-c3cnc4[nH]nc(-c5ccc6c(c5)OCCNC6=O)c4c3)cc(Cl)c2CC1 (stereo partly drawn) [Example 65, 8-(5-{4-Chloro-7-[(2R)-2-methylpyrrolidin-1-yl]-6,7,8,9-tetrahydro-5H-benzo[7]annulen-2-yl}-1H-pyrazolo[3,4-b]pyridin-3-yl)-2,3,4,5-tetrahydro-1,4-benzoxazepin-5-one]"
< 100,< 100,"O=C1NCCOc2cc(-c3n[nH]c4ncc(-c5ccc6c(c5)CCC(N5CCCC5)CC6)cc34)ccc21 (racemic) [Example 1, 8-{5-[7-(Pyrrolidin-1-yl)-6,7,8,9-tetrahydro-5H-benzo[7]annulen-2-yl]-1H-pyrazolo[3,4-b]pyridin-3-yl}-2,3,4,5-tetrahydro-1,4-benzoxazepin-5-one]"
< 100,< 100,"C[C@@H]1CCCN1C1CCc2cc(F)c(-c3cnc4[nH]nc(-c5ccc6c(c5)OCCNC6=O)c4c3)cc2CC1 (stereo partly drawn) [Example 58, 8-(5-{3-Fluoro-7-[(2R)-2-methylpyrrolidin-1-yl]-6,7,8,9-tetrahydro-5H-benzo[7]annulen-2-yl}-1H-pyrazolo[3,4-b]pyridin-3-yl)-2,3,4,5-tetrahydro-1,4-benzoxazepin-5-one]"
